Data as given in ChEMBL document CHEMBL4732160, “Design and synthesis of 7-O-1,2,3-triazole hesperetin derivatives to relieve inflammation of acute liver injury in mice” (Eur J Med Chem, 2021).
Each block holds one compound with its values, some of them ahead of it. Calls of active or inactive are those of the source. The rule behind the calls is not given here.

Key:
[1] = Cytotoxicity against mouse RAW264.7 cells assessed as cell viability at 40 uM measured after 24 hrs by MTT assay relative to control; format: cell-based
RAW264.7 [2] = assay: Antiinflammatory activity in mouse RAW264.7 cells assessed as inhibition of LPS-induced NO production at 10 uM preincubated for 2 hrs followed by LPS stimulation and measured after 24 hrs by Griess method relative to control; format: functional; conditions: time 26 hrs
RAW264.7 [3] = assay: Antiinflammatory activity in mouse RAW264.7 cells assessed as inhibition of LPS-induced IL1beta production at 10 uM preincubated for 1 hr followed by LPS stimulation and measured after 22 hrs by ELISA; format: functional, cell-based; conditions: time 23.0 hrs
RAW264.7 [4] = assay: Antiinflammatory activity in mouse RAW264.7 cells assessed as inhibition of LPS-induced NO production preincubated for 2 hrs followed by LPS stimulation and measured after 24 hrs by Griess method; format: functional, cell-based
RAW264.7 [5] = assay: Antiinflammatory activity in mouse RAW264.7 cells assessed as inhibition of LPS-induced TNFalpha production at 10 uM preincubated for 1 hr followed by LPS stimulation and measured after 22 hrs by ELISA; format: functional, cell-based; conditions: time 23.0 hrs
RAW264.7 [6] = assay: Antiinflammatory activity in mouse RAW264.7 cells assessed as inhibition of LPS-induced IL6 production at 10 uM preincubated for 1 hr followed by LPS stimulation and measured after 22 hrs by ELISA; format: functional, cell-based; conditions: time 23.0 hrs

IC50 (RAW264.7 [4]): 12.5 µM
Structure (SMILES): COc1ccc([C@@H]2CC(=O)c3c(O)cc(OCc4cn(Cc5ccccc5C(F)(F)F)nn4)cc3O2)cc1O
viability at 24 h, 40 µM [1]: 135% | inhibition at 10 µM (RAW264.7 [2]): 48% | inhibition (RAW264.7 [3]): Active | inhibition (RAW264.7 [5]): Active | inhibition (RAW264.7 [6]): Active

IC50 (RAW264.7 [4]): 7.32 µM
Structure (SMILES): COc1ccc([C@@H]2CC(=O)c3c(O)cc(OCc4cn(Cc5ccccc5F)nn4)cc3O2)cc1O
viability at 24 h, 40 µM [1]: 74% | inhibition at 10 µM (RAW264.7 [2]): 63.3% | inhibition (RAW264.7 [3]): Active | inhibition (RAW264.7 [5]): Active | inhibition (RAW264.7 [6]): Active

IC50 (RAW264.7 [4]): 15.4 µM
Structure (SMILES): COc1ccc([C@@H]2CC(=O)c3c(O)cc(OCc4cn(CC(=O)c5ccc(F)cc5)nn4)cc3O2)cc1O
viability at 24 h, 40 µM [1]: 64% | inhibition at 10 µM (RAW264.7 [2]): 38.5% | inhibition (RAW264.7 [3]): Active | inhibition (RAW264.7 [5]): Active | inhibition (RAW264.7 [6]): Active

IC50 (RAW264.7 [4]): 16.9 µM
Structure (SMILES): COc1ccc([C@@H]2CC(=O)c3c(O)cc(OCc4cn(CC(=O)c5ccccc5)nn4)cc3O2)cc1O
viability at 24 h, 40 µM [1]: 112% | inhibition at 10 µM (RAW264.7 [2]): 32.1% | inhibition (RAW264.7 [3]): Active | inhibition (RAW264.7 [5]): Active | inhibition (RAW264.7 [6]): Active

IC50 (RAW264.7 [4]): 18.9 µM
Structure (SMILES): COc1ccc([C@@H]2CC(=O)c3c(O)cc(OCc4cn(CC(=O)c5ccccc5F)nn4)cc3O2)cc1O
viability at 24 h, 40 µM [1]: 113% | inhibition at 10 µM (RAW264.7 [2]): 34.5% | inhibition (RAW264.7 [3]): Active | inhibition (RAW264.7 [5]): Active | inhibition (RAW264.7 [6]): Active

IC50 (RAW264.7 [4]): 15.3 µM
Structure (SMILES): COc1ccc([C@@H]2CC(=O)c3c(O)cc(OCc4cn(C5CCC5)nn4)cc3O2)cc1O
viability at 24 h, 40 µM [1]: 111% | inhibition at 10 µM (RAW264.7 [2]): 44.2% | inhibition (RAW264.7 [3]): Active | inhibition (RAW264.7 [5]): Active | inhibition (RAW264.7 [6]): Active

IC50 (RAW264.7 [4]): 18.9 µM
Structure (SMILES): COc1ccc([C@@H]2CC(=O)c3c(O)cc(OCc4cn(CC(=O)c5ccccc5OC)nn4)cc3O2)cc1O
viability at 24 h, 40 µM [1]: 132% | inhibition at 10 µM (RAW264.7 [2]): 22.8% | inhibition (RAW264.7 [3]): Active | inhibition (RAW264.7 [5]): Active | inhibition (RAW264.7 [6]): Active

IC50 (RAW264.7 [4]): 48.6 µM
Structure (SMILES): COc1ccc([C@@H]2CC(=O)c3c(O)cc(O)cc3O2)cc1O [HESPERETIN]
viability at 24 h, 40 µM [1]: 121% | inhibition at 10 µM (RAW264.7 [2]): 18.4% | inhibition (RAW264.7 [3]): Active | inhibition (RAW264.7 [5]): Active | inhibition (RAW264.7 [6]): Active

IC50 (RAW264.7 [4]): 15 µM
Structure (SMILES): CCn1cc(COc2cc(O)c3c(c2)O[C@H](c2ccc(OC)c(O)c2)CC3=O)nn1
viability at 24 h, 40 µM [1]: 106% | inhibition at 10 µM (RAW264.7 [2]): 41.4% | inhibition (RAW264.7 [3]): Active | inhibition (RAW264.7 [5]): Active | inhibition (RAW264.7 [6]): Active

IC50 (RAW264.7 [4]): 6.14 µM
Structure (SMILES): COc1ccc([C@@H]2CC(=O)c3c(O)cc(OCc4cn(Cc5ccccc5Cl)nn4)cc3O2)cc1O
viability at 24 h, 40 µM [1]: 83% | inhibition at 10 µM (RAW264.7 [2]): 63.1% | inhibition (RAW264.7 [3]): Active | inhibition (RAW264.7 [5]): Active | inhibition (RAW264.7 [6]): Active

IC50 (RAW264.7 [4]): 3.14 µM
Structure (SMILES): CCn1cc(COc2cc(O)c3c(c2)O[C@H](c2ccc(OC)c(O)c2)C/C3=N\O)nn1
viability at 24 h, 40 µM [1]: 101% | inhibition at 10 µM (RAW264.7 [2]): 65.1% | inhibition (RAW264.7 [3]): Active | inhibition (RAW264.7 [5]): Active | inhibition (RAW264.7 [6]): Active

IC50 (RAW264.7 [4]): 11 µM
Structure (SMILES): COc1ccc([C@@H]2CC(=O)c3c(O)cc(OCc4cn(Cc5ccccc5)nn4)cc3O2)cc1O
viability at 24 h, 40 µM [1]: 98% | inhibition at 10 µM (RAW264.7 [2]): 49.8% | inhibition (RAW264.7 [3]): Active | inhibition (RAW264.7 [5]): Active | inhibition (RAW264.7 [6]): Active

IC50 (RAW264.7 [4]): 17.8 µM
Structure (SMILES): COc1ccc([C@@H]2CC(=O)c3c(O)cc(OCc4cn(Cc5ccc(Cl)cc5)nn4)cc3O2)cc1O
viability at 24 h, 40 µM [1]: 94% | inhibition at 10 µM (RAW264.7 [2]): 29% | inhibition (RAW264.7 [3]): Active | inhibition (RAW264.7 [5]): Active | inhibition (RAW264.7 [6]): Active

IC50 (RAW264.7 [4]): 19.9 µM
Structure (SMILES): COc1ccc([C@@H]2CC(=O)c3c(O)cc(OCc4cn(Cc5cccc(C(F)(F)F)c5)nn4)cc3O2)cc1O
viability at 24 h, 40 µM [1]: 93% | inhibition at 10 µM (RAW264.7 [2]): 35.5% | inhibition (RAW264.7 [3]): Active | inhibition (RAW264.7 [5]): Active | inhibition (RAW264.7 [6]): Active
